These results are taken from patent US9688670B2, “Benzimidazole compounds and medical uses thereof” (Sumitomo Dainippon Pharma Co., Ltd., priority 2015, dated 2017).

The assay addresses human SCN9A (Nav 1.7) (Homo sapiens, UniProt Q15858). The experiment in a line: Measurement of Na ion current (Nav 1.7 current) by automated patch clamp assay using cells stably-expressing human SCN9A. The class given is cell-based. As to conditions: concentration of each compound 10 μmol/L, holding potential inactivating 50% Nav 1.7 channel (around −60 mV), room temperature. How it is done:
Measurement of Na Ion Current in Voltage-Dependent Na Channel Gene Expressed Cell Nav 1.7 current was measured by automated patch clamp assay using cells stably-expressing human SCN9A. Cells Stably-Expressing Human SCN9A Tetracycline-induced cells stably-expressing SCN9A were obtained from ChanTest Corporation. […] Next day, the Na ion current was measured by automated patch clamp assay. Electrophysiologic Measurement of Na Ion Current The Na ion current was measured by automated patch clamp assay using the following extracellular solution and intracellular solution. […] The control of the stimulating pulse and the data acquisition were carried out using EPC10 amplifier and Patch Master Software (HEKA). Data were sampled at 10 kHz, and low-pass filtered at 3 kHz. All the measurements were carried out at room temperature. […] The inhibitory rate of the Na ion current by the test compounds was calculated according to the following calculating formula with the peak current value generated by the depolarizing pulse. […] The inhibitory rate of Na ion current by each Example Compound was evaluated.
In general terms: In patch-clamp work, channel activity is measured electrically.

Sequence of human SCN9A (Nav 1.7) (Q15858 whole entry): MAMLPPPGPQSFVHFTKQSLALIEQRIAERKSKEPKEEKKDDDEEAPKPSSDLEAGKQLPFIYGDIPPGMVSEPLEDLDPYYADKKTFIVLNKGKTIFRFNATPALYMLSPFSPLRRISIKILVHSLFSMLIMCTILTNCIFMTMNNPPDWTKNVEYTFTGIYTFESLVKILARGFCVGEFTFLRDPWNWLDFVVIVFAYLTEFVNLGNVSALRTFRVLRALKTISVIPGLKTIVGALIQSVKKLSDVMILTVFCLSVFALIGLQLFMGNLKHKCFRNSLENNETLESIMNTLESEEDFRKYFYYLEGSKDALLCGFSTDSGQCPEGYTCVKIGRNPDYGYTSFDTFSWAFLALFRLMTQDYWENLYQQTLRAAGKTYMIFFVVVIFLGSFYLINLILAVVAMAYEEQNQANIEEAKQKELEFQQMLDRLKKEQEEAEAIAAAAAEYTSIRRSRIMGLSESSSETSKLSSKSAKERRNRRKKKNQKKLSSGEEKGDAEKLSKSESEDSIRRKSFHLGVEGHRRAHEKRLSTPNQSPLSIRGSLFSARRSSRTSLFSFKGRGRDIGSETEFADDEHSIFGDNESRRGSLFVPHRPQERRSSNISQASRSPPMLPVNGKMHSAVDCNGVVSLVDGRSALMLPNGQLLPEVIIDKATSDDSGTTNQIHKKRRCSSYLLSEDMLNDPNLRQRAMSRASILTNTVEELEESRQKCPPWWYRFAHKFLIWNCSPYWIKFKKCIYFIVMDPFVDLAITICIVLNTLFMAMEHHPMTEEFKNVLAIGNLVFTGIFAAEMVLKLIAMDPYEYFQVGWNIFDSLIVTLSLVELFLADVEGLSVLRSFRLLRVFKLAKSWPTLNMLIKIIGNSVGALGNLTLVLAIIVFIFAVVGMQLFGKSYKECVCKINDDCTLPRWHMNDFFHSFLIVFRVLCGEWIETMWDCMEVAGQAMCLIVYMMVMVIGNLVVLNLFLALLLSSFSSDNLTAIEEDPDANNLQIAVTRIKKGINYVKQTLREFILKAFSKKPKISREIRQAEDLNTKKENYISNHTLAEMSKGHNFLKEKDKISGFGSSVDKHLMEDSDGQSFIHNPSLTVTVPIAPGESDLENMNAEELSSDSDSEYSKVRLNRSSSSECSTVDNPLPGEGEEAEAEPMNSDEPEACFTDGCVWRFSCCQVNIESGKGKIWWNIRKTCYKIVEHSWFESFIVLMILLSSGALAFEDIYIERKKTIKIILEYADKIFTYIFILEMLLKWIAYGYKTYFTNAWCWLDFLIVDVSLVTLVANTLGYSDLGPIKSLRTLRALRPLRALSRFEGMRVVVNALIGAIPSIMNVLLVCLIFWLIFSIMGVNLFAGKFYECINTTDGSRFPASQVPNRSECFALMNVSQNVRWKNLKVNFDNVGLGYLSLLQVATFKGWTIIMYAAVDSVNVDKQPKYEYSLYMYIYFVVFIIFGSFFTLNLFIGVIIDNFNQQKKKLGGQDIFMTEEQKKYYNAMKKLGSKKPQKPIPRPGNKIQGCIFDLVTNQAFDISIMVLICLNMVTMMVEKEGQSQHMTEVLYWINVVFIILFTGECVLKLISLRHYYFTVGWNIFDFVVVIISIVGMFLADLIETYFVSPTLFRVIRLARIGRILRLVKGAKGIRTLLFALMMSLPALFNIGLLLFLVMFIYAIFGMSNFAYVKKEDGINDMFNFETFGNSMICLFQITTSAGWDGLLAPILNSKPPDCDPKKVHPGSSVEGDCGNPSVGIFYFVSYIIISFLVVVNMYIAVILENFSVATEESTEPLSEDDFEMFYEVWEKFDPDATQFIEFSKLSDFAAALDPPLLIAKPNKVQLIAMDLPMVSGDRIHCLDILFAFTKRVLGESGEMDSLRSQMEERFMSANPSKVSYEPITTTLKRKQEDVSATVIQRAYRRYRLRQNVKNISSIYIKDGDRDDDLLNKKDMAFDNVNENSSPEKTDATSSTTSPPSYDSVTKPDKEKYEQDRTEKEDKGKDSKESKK

For `OC1(Cn2cnc3ccc(Oc4ccc(C(F)(F)F)cc4)cc32)COC1` [Example 90], the “Inhibitory rate (%) of Na ion current” value is recorded as 15%.
For the molecule `C[C@]1(O)C[C@@H](n2cnc3ccc(Oc4ccc(C(F)(F)F)cn4)cc32)C1` [Example 121], the inhibition at 10 µM (read-out: Inhibitory rate (%) of Na ion current) was 21%.
